Experimental data: patent publication US8591895B2, “Combinations for the treatment of diseases involving cell proliferation” (Boehringer Ingelheim International GmbH, priority 2004, dated 2013)
Where two headings read alike, the source gives them in different places.

Experiments:
NCI-H460 tumors = experiment: NCI-H460 lung model combination study: tumor growth of subcutaneous xenografts in nude mice; format: in vivo, human; settings: Docetaxel 15 mg/kg i.v.; for T/C (tumor growth delay): day 17 (end of the controls), Nr. 46 50 mg/kg i.v., once weekly (q7d)x4, alone or combined; for delay of the average time to reach 1000 mm^3 in tumor volume compared to the controls: until day 71 (end of the study), weekly treatment until day 25, Nr. 46 50 mg/kg
Excerpt: (§1) The triangles indicate the treatment days.

[1] = Tolerability (body weight) in NCI-H460 tumor-bearing nude mice; settings: 10 animals per group; Docetaxel 15 mg/kg i.v., alone or with Nr. 46 50 mg/kg i.v.
Excerpt: as §1

HCT 116 tumors = experiment: HCT 116 colon cancer model combination study: tumor growth of subcutaneous xenografts in nude mice; format: in vivo, human; settings: Nr. 46 30 mg/kg i.v., irinotecan 12.5 mg/kg i.p.; for T/C (tumor growth delay): day 39 (end of the controls), once weekly (q7d)x10, alone or combined
[2] = format: in vivo; settings: day 39, Nr. 46 30 mg/kg i.v., irinotecan 12.5 mg/kg i.p., once weekly; for body weight gain: controls gained 10.3%
[3] = for body weight gain: day 26, Nr. 46 50 mg/kg i.v., gemcitabine 100 mg/kg i.p., once weekly, controls gained 6.2%
Procedure: Suboptimal doses of both compounds were used to facilitate the detection of additive, synergistic or antagonistic effects. Design of the Study • Model: Human adenocarcinoma model BxPC-3 grown as subcutaneous xenografts in nude mice. • Treatment groups (10 animals per group): • Controls Vehicle, i.v., once weekly for 4 weeks ((q7d)×4) • Exemplified compound Nr.
Tumor volumes and animal weights were recorded 3 times per week. Evaluation of therapy results was based on the absolute volumes of individual tumors.
Mice were female BomTac:NMRI-nu/nu. […] Gemcitabin infusion concentrate was diluted with 0.9% NaCl and injected intraperitoneally. The administration volume was 10 ml per kg body weight for both compounds. BxPC-3 tumours were established from cultured BxPC-3. Tumour volumes were determined three times a week using a calliper. The weight of mice was determined as an indicator of tolerability on the same days. Plasma samples were taken on the last treatment day.

BxPC-3 tumours = experiment: BxPC-3 pancreas model combination study: tumour growth of subcutaneous xenografts in nude mice; format: in vivo, human; settings: day 26 (end of the controls); Nr. 46 50 mg/kg i.v., gemcitabine 100 mg/kg i.p., once weekly (q7d)x6, alone or combined

**Q.** Which results are given for `CC(=O)O[C@@]12CO[C@@H]1C[C@H](O)[C@@]1(C)C(=O)[C@H](O)C3=C(C)[C@@H](OC(=O)[C@H](O)[C@@H](NC(=O)OC(C)(C)C)c4ccccc4)C[C@@](O)([C@@H](OC(=O)c4ccccc4)[C@H]21)C3(C)C` [Docetaxel]?
**A.** T/C (tumor growth delay) (NCI-H460 tumors): 42%; delay of the average time to reach 1000 mm^3 in tumor volume compared to the controls (NCI-H460 tumors): 10.5 days; mice euthanized due to severe loss of body weight [1]: one mouse had to be euthanized

**Q.** Which “T/C (tumor growth delay)” value (HCT 116 tumors) does the source give for `CC[C@@H]1C(=O)N(C)c2cnc(Nc3ccc(C(=O)NC4CCN(C)CC4)cc3OC)nc2N1C1CCCC1` [exemplified compound Nr. 46, 4-[[(7R)-8-cyclopentyl-7-ethyl-5,6,7,8-tetrahydro-5-methyl-6-oxo-2-pteridinyl]amino]-3-methoxy-N-(1-methyl-4-piperidinyl)-benzamide] here?
**A.** 20%

**Q.** What about the “delay of the average time to reach 1000 mm^3 in tumor volume” value (HCT 116 tumors; day 121 (end of the study), weekly treatment until day 64) of the same compound?
**A.** 33.7 days

**Q.** And the “T/C (tumor growth delay)” value (NCI-H460 tumors)?
**A.** 65%

**Q.** And the “delay of the average time to reach 1000 mm^3 in tumor volume compared to the controls” value (NCI-H460 tumors)?
**A.** 4.0 days

**Q.** And the body weight gain [2]?
**A.** 8.6%

**Q.** What about the body weight gain [3] of the same compound?
**A.** 8.2%

**Q.** And the “T/C (tumour growth delay)” value (BxPC-3 tumours)?
**A.** 28%

**Q.** Which body weight gain [3] does the source give for `Nc1ccn([C@@H]2O[C@H](CO)[C@@H](O)C2(F)F)c(=O)n1` [gemcitabine, Gemcitabine] here?
**A.** 8.8%

**Q.** What about the “tolerability of higher doses” value ([3]; mouse, in vivo) of the same compound?
**A.** not tolerated

**Q.** And the “T/C (tumour growth delay)” value (BxPC-3 tumours)?
**A.** 65%

**Q.** For `CCc1c2c(nc3ccc(OC(=O)N4CCC(N5CCCCC5)CC4)cc13)-c1cc3c(c(=O)n1C2)COC(=O)[C@]3(O)CC` [irinotecan], which “T/C (tumor growth delay)” value (HCT 116 tumors) is on record?
**A.** 25%

**Q.** And the tolerability [2]?
**A.** well tolerated

**Q.** And the body weight gain [2]?
**A.** 5.9%
